{"source": "patent US6355619B1", "about": "“Peptide tumor cell growth inhibitors” (Board of Regents, The University of Texas System, priority 1996, dated 2002)", "key": {"[1]": {"biological_target": "T1, leukotriene B4 binding to human neutrophils (Homo sapiens, UniProt Q15722)", "T1 construct": "endogenous in cells; host or cells: human blood neutrophils", "T1 sequence (Q15722 whole entry)": "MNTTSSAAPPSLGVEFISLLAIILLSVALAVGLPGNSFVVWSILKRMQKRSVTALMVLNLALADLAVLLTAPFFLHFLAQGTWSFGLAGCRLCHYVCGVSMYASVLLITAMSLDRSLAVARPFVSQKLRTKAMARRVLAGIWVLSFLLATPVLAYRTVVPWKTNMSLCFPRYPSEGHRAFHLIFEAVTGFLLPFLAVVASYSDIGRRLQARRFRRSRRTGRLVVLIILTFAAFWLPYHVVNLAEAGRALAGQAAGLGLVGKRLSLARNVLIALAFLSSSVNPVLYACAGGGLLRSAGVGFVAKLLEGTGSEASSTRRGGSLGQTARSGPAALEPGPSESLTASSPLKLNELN", "test": "Binding of 3H-leukotriene B4 to human neutrophils", "conditions": "100 μM peptide; 0.4 nM 3H-labeled leukotriene B4", "text": "To examine the specificity of Ac-RRWWCR-NH2 (SEQ ID NO:1) on ligand-receptor binding, the inventors tested whether the peptide reduced the binding of human ^125I-C5a or ^3H-leukotriene B4 to human neutrophils.\nRecombinant human fifth component of complement (C5a) (Sigma Chemical Co., St. Louis, Mo.) was radioiodinated enzymatically using Enzymobead (Bio Rad, Richmond, Calif.). Tritiated leukotriene B4 was purchased from Du Pont Co., Wilmington, Del. Binding assays for C5a and leukotriene B4 were performed as described for IL-8 binding in Example I, except that the buffers used were PBS containing 1 mM CaCl2, 0.5 mM MgCl2, 0.5% BSA, and HBSS containing 0.1% ovulabumin and 10 mM HEPES (pH7.3), respectively, as previously described (Braunwalder et al., 1992; Sherman et al., 1988). The radioactivity was measured with liquid scintillation counter for the leukotriene B4 assay. The binding of both ligands were saturable and inhibited by the non-labeled agonists in dose dependent manners."}, "[2]": {"biological_target": "T2, GRO binding to human neutrophils (Homo sapiens, UniProt P25025)", "T2 construct": "endogenous in cells; host or cells: human neutrophils", "T2 sequence (P25025 whole entry)": "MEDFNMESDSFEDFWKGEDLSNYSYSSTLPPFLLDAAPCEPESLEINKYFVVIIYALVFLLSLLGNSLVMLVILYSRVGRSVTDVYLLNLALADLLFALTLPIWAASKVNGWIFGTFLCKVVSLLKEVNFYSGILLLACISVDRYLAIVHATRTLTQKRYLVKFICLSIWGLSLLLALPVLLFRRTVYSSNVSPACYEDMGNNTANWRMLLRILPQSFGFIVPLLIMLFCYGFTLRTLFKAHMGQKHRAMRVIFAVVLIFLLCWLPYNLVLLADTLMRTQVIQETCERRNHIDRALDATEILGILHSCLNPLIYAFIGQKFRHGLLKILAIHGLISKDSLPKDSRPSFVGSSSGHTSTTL", "test": "Binding of radioiodinated GRO/MGSA to human neutrophils", "conditions": "1 nM GRO", "method": "(§1) FIG. 10. Ac-RRWWCX (SEQ ID NO:23) Inhibits Binding of GRO and MIP2β to human neutrophils. Radioiodinated MIP2β and GRO/MGSA were mixed with various concentration of Ac-RRWWCR-NH2 and incubated at room temperature for 15 min. Neutrophil suspension (1×10^6 cells in 160 μl PBS containing 0.1% BSA) was added to 40 μl of the mixture and incubated for 90 min on ice. The radioactivity bound to the cells was separated from free radioactivity by centrifugation through an oil layer. The % binding inhibition was calculated as follows: [formula]\n(§2) MIP2β and GRO/MGSA were radioiodinated using Bolten Hunter reagent. The radioiodinated components were mixed with various concentration of the Ac-RRWWCX-NH2 (SEQ ID NO:23) peptide and incubated at room temperature for 15 min. Neutrophil suspension (1×10^6 cells in 160 μl PBS containing 0.1% BSA) was added to 40 μl of the mixture and incubated for 90 min on ice. The radioactivity bound to the cells was separated from free radioactivity by centrifugation through an oil layer. The bound radioactivity is an indication of bound CXC intercrine peptide. The % binding inhibition in the presence of Ac-RRWWCX-NH2 (SEQ ID NO:23) was calculated as follows: [formula]\n(§3) where B is bound radioactivity in the presence of the peptide, T is bound radioactivity in the absence of the peptide, and NSP is bound radioactivity in the presence of excess nonlabeled ligand."}, "[3]": {"biological_target": "T3, MIP2β binding to human neutrophils (Homo sapiens, UniProt P25025)", "T3 construct": "endogenous in cells; host or cells: human neutrophils", "T3 sequence (P25025 whole entry)": "as above", "test": "Binding of radioiodinated MIP2β to human neutrophils", "conditions": "1 nM MIP2β", "method": "as §1, §2, §3"}, "[4]": {"test_system": "leukotriene B4-stimulated neutrophil enzyme release", "test": "β-glucuronidase release from neutrophils stimulated by leukotriene B4", "format": "cell-based, human", "conditions": "100 nM leukotriene B4", "method": "FIG. 8. The Effect of Ac-RRWWCR-NH2 (SEQ ID NO:1) on β-glucuronidase Release. Neutrophils pretreated with cytochalasin B were incubated with 100 nM IL-8 (●), 100 nM fMLP (▪), 100 nM C5a (_) or 100 nM leukotriene B4 ? or without any stimulant (◯) in the presence of increasing concentration of Ac-RRWWCR-NH2 (SEQ ID NO:1) for 30 min at 37° C. β-glucuronidase activity of supernatants were measured using phenolphthalein-glucuronic acid as substrate. Analysis of variance was used for multiple comparison.\nNeutrophil enzyme release was studied by a modification of the method of Goldstein and colleagues (Goldstein et al., 1973). Cytochalasin B (Sigma Chemical Co.) was stored in dimethyl sulfoxide at a concentration of 5 mg/ml and was diluted to a concentration of 50 μg/ml in Hank's Balanced Salt Solution (HBSS) immediately before use. Cytochalasin B, 200 μl, was added to 1 ml of suspension of neutrophils, 6.25×10^6 cells/ml in HBSS, to achieve a final cytochalasin B concentration of […]. The solution was then incubated in 96 well plates at room temperature for 10 min. The stimulant, 100 μl, was added, and this cell suspension was incubated for 30 min at 37° C. The plates were centrifuged and 100 μl of supernatant was removed. […] After 16 hr incubation at 37° C., 200 μl of 0.2 M Glycine in 0.2 M NaCl, pH10.4 was added to each well and OD540 was measured as the enzyme activity."}, "[5]": {"test_system": "adenocarcinoma from breast tissue MCF-7", "test": "Tumor cell growth, MCF-7", "format": "cell-based"}, "[6]": {"test_system": "adenocarcinoma from stomach Hs746T", "test": "Tumor cell growth, Hs746T", "format": "cell-based"}, "[7]": {"test_system": "lung adenocarcinoma cell line NCI-H441", "test": "Tumor cell growth, NCI-H441", "format": "cell-based"}, "[8]": {"test_system": "Hep G2 liver cancer cells", "test": "Cell growth assay, Hep G2", "format": "cell-based", "conditions": "72 hr", "method": "FIG. 15C. The effect of Antileukinate on the growth of melanoma cells. Melanoma cell lines and a control liver cancer cell line (2×10^4 cells/well) in 500 μl were cultured in a 24 well tissue culture plate in the presence of various concentrations of Antileukinate for 3 d. The culture media were changed to fresh media containing the same concentration of Antileukinate every 24 hr during the incubation period. After incubation, the cells were collected and the cell number was counted using a hemocytometer. Liver cancer cell line, Hep G2. Analysis of variance was used for multiple comparison.\nThe cell lines (2×10^4 cells/well) in 500 μl cell culture medium were grown in 24 well tissue culture plates. After the cells adhered to the plate, the supernatants were aspirated and 500 μl of media containing various concentrations of Antileukinate were added to the wells. The cells were cultured for period indicated in the text. The culture media were changed to fresh media every 24 hr. After incubation, the cells were detached with trypsin-EDTA solution (Life Technologies Inc., Gaithersburg, Md., containing 0.05% of trypsin and 0.53 mM of EDTA in Hanks Balanced Salt Solution without Ca^2+ and Mg^2+) and the cell number was counted using a hemocytometer."}, "[9]": {"conditions": "Hep G2 culture, 100 μM peptide", "description": "Analysis for the breakdown of Antileukinate in the culture of Hep G2 cells. A total concentration of tritium labeled and unlabeled Antileukinate of 100 μM, was added to the culture of Hep G2 cells. Aliquots of medium were removed at different times and chromatographed on an HPLC Bondapak C18 reversed phase column. The peptides were eluted using a gradient from 0.1% TFA to 80% acetonitrile in 0.1% TFA. One milliliter fractions were collected and measured for their radioactivity using a liquid scintillation counter. The chromatographs show the elution volume of the radioactivity at different times after addition to the cells.\nHs 294T and Hep G2 cells, 2×10^4 cell/well, were cultured in 24 well tissue culture plates for 24 hr. Then the culture media were replaced with media containing tritiated Antileukinate, 0.2 μCi, mixed with 100 μM unlabeled peptide in each well. The cells were then cultured for the indicated periods. The supernatants were collected and stored at −70° C. until use. The breakdown of Antileukinate during the cell culture was analyzed on high performance liquid chromatography (HPLC) using an analytical C18 reversed phase column (Waters Co., New Bedford, Mass.). […] One milliliter fractions were collected and measured for their radioactivity content using a liquid scintillation counter."}, "[10]": {"test_system": "adenocarcinoma from colon Caco-2", "test": "Tumor cell growth, Caco-2", "format": "cell-based"}}}
{"substance": "RRWWCR [Ac-RRWWCR-NH2]", "values": [{"measurement": "effect on binding of leukotriene B4 to neutrophils", "setting": "[1]", "result": "did not affect the binding"}, {"measurement": "effect on binding of GRO to neutrophils", "setting": "[2]", "result": "effectively suppress the binding"}, {"measurement": "effect on binding of MIP2β to neutrophils", "setting": "[3]; listed as Ac-RRWWCX-NH2", "result": "effectively suppress the binding"}, {"measurement": "effect on binding of MIP2β to neutrophils", "setting": "[3]; listed as Antileukinate", "result": "suppressed the binding"}, {"measurement": "effect on enzyme release stimulated by leukotriene B4", "setting": "[4]", "result": "did not affect the enzyme release"}, {"measurement": "effect on cell growth", "setting": "[5]", "result": "inhibits growth"}, {"measurement": "effect on cell growth", "setting": "[6]", "result": "inhibits growth"}, {"measurement": "effect on cell growth", "setting": "[7]", "result": "inhibits growth"}, {"measurement": "effect on growth of Hep G2 liver cancer cells", "setting": "[8]", "result": "did not affect the growth"}, {"measurement": "time within which the peptide is substantially eliminated from the culture", "setting": "[9]", "result": "≤ 24", "unit": "h"}, {"measurement": "decrease of the major radioactivity peak (intact peptide)", "setting": "[9]; after 24 hr", "result": "more than 85%"}, {"measurement": "effect on cell growth", "setting": "[10]", "result": "inhibits growth"}]}
